Assays:
HEK293 [1] = test: IC50 for inhibition of ZIKV NS1 production
Description: (§1)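 HEK293 cells in 1536-well plates were pre-treated with compound for 1 h, infected with ZIKV (MOI 1) for 24 h, and NS1 antigen (intra- plus extracellular) was measured by TR-FRET. Confirmation used 11-point 1:3 dilutions, and IC50 and maximal inhibition were fitted in GraphPad Prism.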

HEK293 [2] = test: maximal inhibition of ZIKV NS1 production (% inhibition); higher = stronger antiviral effect
Description: as §1

HEK293 [3] = test: cytotoxicity IC50 (ATP content, uninfected cells); higher = less cytotoxic; conditions: infection: none

Row | SMILES | IC50 (HEK293 [1]) | maximal inhibition (HEK293 [2]) | cytotoxicity IC50 (HEK293 [3])
1 | O=C(c1ccc(Nc2nccc(-c3cc4ccccc4s3)n2)cc1)N1CCC(N2CCCC2)CC1 | 16000 nM | 100 | > 100000 nM
2 | C/C=C(\C)C(=O)N[C@@H](c1ccccc1)[C@@H](O)C(=O)O[C@H]1C[C@@]2(O)[C@@H](OC(=O)c3ccccc3)[C@@H]3[C@]4(OC(C)=O)CO[C@@H]4C[C@H](O)[C@@]3(C)C(=O)[C@H](OC(C)=O)C(=C1C)C2(C)C | 220 nM | 67 | > 100000 nM
3 | COC[C@H](NC(=O)c1cnc(C)s1)C(=O)N[C@@H](COC)C(=O)N[C@@H](Cc1ccccc1)C(=O)[C@@]1(C)CO1 | 320 nM | 100 | 720 nM
4 | CN(C)C(=S)SSC(=S)N(C)C | 510 nM | 99 | 180 nM
5 | N=C(N)NN=C(/C=C/c1ccc([N+](=O)[O-])o1)/C=C/c1ccc([N+](=O)[O-])o1 | 3900 nM | 102 | 3900 nM
